Assay results: patent US20260041640A1 (INCYCLIX BIO, LLC, priority 2023, published 2026)
Where “and” joins values, the source holds several entries; their conditions need not be identical. Equal entries are not always repeated. Where two headings read alike, the source gives them in different places.

Assay: First-in-human clinical study: plasma and whole blood PK of INX-315 (oral QD, ASD tablet)
Format: in vivo
Text: All INX-315 tablets were taken at approximately the same time(s) each day.
Samples will also be collected pre-dose on Cycle 1 Days 2, 8, 16, and Day 22, and pre-dose on Day 1 of each subsequent cycle.
Standard non-compartmental PK parameters were estimated.
Geometric mean and geometric CV % will be included in the summary statistics.
PK parameters will be summarized descriptively by dosing cohort. AUC and Cmax values will also be presented in scatter plots. Dose proportionality will be assessed for AUC and Cmax using a power model. The 90% CI of the slope for each PK parameter will be estimated from the model and presented in a summary table.
Cohort 1 enrollment of 6 subjects dosed at 100 mg oral QD was completed in October of 2023.
Patients were upgraded to the 200 mg QD dose level and PK/PD plasma parameters were measured (FIG. 18A).
Patients were administered the 200 mg QD and 300 mg QD dose levels and PK/PD plasma parameters were measured.

[1] = plasma, 100 mg QD cohort, Day 1, individual subjects
[2] = plasma, 100 mg QD cohort, Day 1, median
[3] = plasma, 100 mg QD cohort, Day 15, individual subjects
[4] = plasma, 100 mg QD cohort, Day 15, median
[5] = plasma, 100 mg QD, Day 1, individual patients
[6] = plasma, 100 mg QD, Day 15, individual patients
[7] = plasma, 200 mg QD, Day 1, Cohort 2
[8] = plasma, 200 mg QD, Day 1, individual subjects
[9] = plasma, 200 mg QD, Day 15, Cohort 2
[10] = plasma, 200 mg QD, Day 15, individual subjects
[11] = plasma, 300 mg QD cohort, Day 1, individual subjects
[12] = plasma, 300 mg QD cohort, Day 1, median
[13] = plasma, 300 mg QD cohort, Day 15, individual subjects
[14] = whole blood, 100 mg QD, Day 1, individual patients
[15] = whole blood, 100 mg QD, Day 15, individual patients

NS(=O)(=O)c1ccc(Nc2ncc3cc4n(c3n2)C2(CCCCC2)C(=O)NN4)cc1 [INX-315]
Tmax (human, plasma, po, 100 mg, plasma, 100 mg QD cohort, Day 1, median, read-out: Tmax, Median): 4 h | half-life (human, plasma, po, 100 mg, plasma, 100 mg QD cohort, Day 1, median, read-out: t1/2, Median (converted)): 15.6 h | AUC(0-t) (human, plasma, po, 100 mg, plasma, 100 mg QD cohort, Day 15, geometric mean, read-out: AUClast, Geometric Mean): 3290 ng·h/mL | Cmax (human, plasma, po, 100 mg, plasma, 100 mg QD cohort, Day 15, geometric mean, read-out: Cmax, Geometric Mean): 211 ng/mL | half-life (human, plasma, po, 100 mg, plasma, 100 mg QD cohort, Day 15, individual subjects, read-out: t1/2 (converted)): 17.6 h | AUC(0-t) (human, plasma, po, 100 mg, plasma, 100 mg QD cohort, Day 15, median, read-out: AUClast, Median): 3120 ng·h/mL | Cmax (human, plasma, po, 100 mg, plasma, 100 mg QD cohort, Day 15, median, read-out: Cmax, Median): 217 ng/mL | Tmax (human, plasma, po, 100 mg, plasma, 100 mg QD cohort, Day 15, median, read-out: Tmax, Median): 6 h | half-life (human, whole blood, oral, 100 mg, preliminary data, first two patients, 100 mg QD, read-out: t1/2 (converted)): ≥ 15 h | AUC(0-t) (human, whole blood, oral, 100 mg, whole blood, 100 mg QD, Day 1, Cohort 1 (Table 28), read-out: AUClast, geometric mean): 34700 ng·h/mL | Cmax (human, whole blood, oral, 100 mg, whole blood, 100 mg QD, Day 1, Cohort 1 (Table 28), read-out: Cmax, geometric mean): 2280 ng/mL | Tmax (human, whole blood, oral, 100 mg, whole blood, 100 mg QD, Day 1, Cohort 1 (Table 28), read-out: Tmax, median): 6 h | half-life (human, whole blood, oral, 100 mg, whole blood, 100 mg QD, Day 1, Cohort 1 (Table 28), read-out: t1/2, geometric mean (converted)): 17.9 h | AUC (human, whole blood, oral, 100 mg, whole blood, 100 mg QD, Day 1 observed, mean of first two patients, read-out: AUC): 50600 ng·h/mL | Cmax (human, whole blood, oral, 100 mg, whole blood, 100 mg QD, Day 1 observed, mean of first two patients, read-out: Cmax): 3000 ng/mL | AUC(0-t) (human, whole blood, oral, 100 mg, whole blood, 100 mg QD, Day 15, Cohort 1 (Table 28), read-out: AUClast, median): 62700 ng·h/mL | Cmax (human, whole blood, oral, 100 mg, whole blood, 100 mg QD, Day 15, Cohort 1 (Table 28), read-out: Cmax, median): 3580 ng/mL | Tmax (human, whole blood, oral, 100 mg, whole blood, 100 mg QD, Day 15, Cohort 1 (Table 28), read-out: Tmax, median): 6 h | half-life (human, whole blood, oral, 100 mg, whole blood, 100 mg QD, Day 15, individual patients, read-out: t1/2 (converted)): 21.6 h | AUC (human, whole blood, oral, 100 mg, whole blood, 100 mg QD, Day 15 observed, mean of first two patients, read-out: AUC): 116000 ng·h/mL | Cmax (human, whole blood, oral, 100 mg, whole blood, 100 mg QD, Day 15 observed, mean of first two patients, read-out: Cmax): 5440 ng/mL | AUC (human, whole blood, oral, 200 mg, Cohort 2 (200 mg QD), Day 1, individual subjects, read-out: AUC Whole Blood): 96600 ng·h/mL | AUC (human, whole blood, oral, 300 mg, Cohort 3 (300 mg QD), Day 1, individual subjects, read-out: AUC Whole Blood): 134000 ng·h/mL | AUC (human, whole blood, oral, 300 mg, Cohort 3 (300 mg QD), Day 15, Tlast = 6 hours, read-out: AUC Whole Blood): 43900 ng·h/mL | AUC (human, whole blood, oral, 300 mg, Cohort 3 (300 mg QD), Day 15, individual subjects, read-out: AUC Whole Blood): 86400 ng·h/mL | Clast, geometric mean (plasma, 100 mg QD cohort, Day 1, geometric mean): 48.7 ng/mL | AUClast [1]: 2410 ng·h/mL and 1840 ng·h/mL and 3300 ng·h/mL and 2160 ng·h/mL and 3360 ng·h/mL and 633 ng·h/mL | Clast [1]: 42.3 ng/mL and 50.7 ng/mL and 85.2 ng/mL and 31.9 ng/mL and 114 ng/mL and 20 ng/mL | Cmax [1]: 320 ng/mL and 109 ng/mL and 197 ng/mL and 43.8 ng/mL | Tlast [1]: 24 h | Clast, median [2]: 46.5 ng/mL | Tlast, Median [2]: 24 h | Clast, geometric mean (plasma, 100 mg QD cohort, Day 15, geometric mean): 90.6 ng/mL | AUClast [3]: 6840 ng·h/mL and 1930 ng·h/mL and 1640 ng·h/mL and 5700 ng·h/mL | Clast [3]: 188 ng/mL and 65.4 ng/mL and 63.1 ng/mL and 154 ng/mL and 51.2 ng/mL | Cmax [3]: 424 ng/mL and 96.4 ng/mL and 344 ng/mL | Tlast [3]: 24 h | t1/2 [3]: 16.0 h | Clast, median [4]: 65.4 ng/mL | Tlast, Median [4]: 24 h | dose proportionality of exposure (AUC) (plasma, 100 mg QD versus 200 mg QD): dose-proportional increase in exposure (or greater) | dose proportionality of exposure (plasma, 100 mg QD versus 200 mg QD and 300 mg QD): dose-proportional increase in exposure (or greater) | Clast, geometric mean (plasma, 100 mg QD, Day 1, Cohort 1 (Table 27)): 61.4 ng/mL | AUClast [5]: 3410 ng·h/mL and 2160 ng·h/mL and 2510 ng·h/mL and 1990 ng·h/mL | Clast [5]: 119 ng/mL and 86.3 ng/mL and 33.9 ng/mL and 43.9 ng/mL and 57.0 ng/mL | Cmax [5]: 194 ng/mL and 197 ng/mL and 179 ng/mL and 326 ng/mL and 119 ng/mL | Tlast [5]: 24 h | t1/2 [5]: 8.88 h and 11.5 h and 16.7 h | AUClast [6]: 5920 ng·h/mL | Clast [6]: 199 ng/mL and 155 ng/mL | Cmax [6]: 358 ng/mL | Tlast [6]: 24 h | t1/2 [6]: 15.2 h | Clast, geometric mean [7]: 223 ng/mL | Clast, median [7]: 261 ng/mL | Tlast, Median [7]: 24 h | AUClast [8]: 7300 ng·h/mL and 11300 ng·h/mL and 19100 ng·h/mL and 4540 ng·h/mL | Clast [8]: 212 ng/mL and 291 ng/mL and 487 ng/mL and 69.7 ng/mL and 261 ng/mL | Cmax [8]: 444 ng/mL and 800 ng/mL and 1140 ng/mL and 305 ng/mL | Tlast [8]: 24 h | Clast, geometric mean [9]: 263 ng/mL | Clast, median [9]: 320 ng/mL | Tlast, Median [9]: 24 h | AUClast [10]: 6560 ng·h/mL and 14300 ng·h/mL and 18100 ng·h/mL and 13200 ng·h/mL | Clast [10]: 88.8 ng/mL and 324 ng/mL and 521 ng/mL and 317 ng/mL | Cmax [10]: 1230 ng/mL and 997 ng/mL and 758 ng/mL | Tlast [10]: 24 h | t1/2 [10]: 10.5 h and 14.3 h | Clast, geometric mean (plasma, 300 mg QD cohort, Day 1, geometric mean): 213 ng/mL | AUClast [11]: 7590 ng·h/mL and 11000 ng·h/mL and 8080 ng·h/mL and 11500 ng·h/mL | Clast [11]: 148 ng/mL and 135 ng/mL and 303 ng/mL and 219 ng/mL and 331 ng/mL | Cmax [11]: 550 ng/mL and 490 ng/mL and 812 ng/mL | Tlast [11]: 24 h | t1/2 [11]: 16.2 h | Clast, median [12]: 219 ng/mL | Tlast, Median [12]: 24 h | AUClast [13]: 4430 ng·h/mL | Clast [13]: 96.8 ng/mL and 359 ng/mL | Cmax [13]: 840 ng/mL | Tlast [13]: 24 h and 8 h | Tmax [13]: 0.5 h | t1/2 [13]: 5.80 h | factor by which observed AUC exceeded the model (whole blood, 100 mg QD, Day 1): 9 × | Clast, geometric mean (whole blood, 100 mg QD, Day 1, Cohort 1 (Table 28)): 956 ng/mL | AUClast [14]: 60500 ng·h/mL and 40600 ng·h/mL and 37800 ng·h/mL and 32500 ng·h/mL and 13400 ng·h/mL and 43600 ng·h/mL | Clast [14]: 1840 ng/mL and 1020 ng/mL and 1180 ng/mL and 719 ng/mL and 502 ng/mL and 954 ng/mL | Cmax [14]: 3430 ng/mL and 2570 ng/mL and 2110 ng/mL and 2710 ng/mL and 805 ng/mL and 3470 ng/mL | Tlast [14]: 24 h | t1/2 [14]: 22.4 h and 13.9 h and 20.5 h and 14.5 h and 27.4 h and 12.8 h | Cmin (whole blood, 100 mg QD, Day 1 observed, mean of first two patients): 1430 ng/mL | Clast, median (whole blood, 100 mg QD, Day 15, Cohort 1 (Table 28)): 1670 ng/mL | AUClast [15]: 117000 ng·h/mL and 31400 ng·h/mL | Clast [15]: 3220 ng/mL and 1670 ng/mL and 891 ng/mL | Cmax [15]: 7290 ng/mL and 1820 ng/mL | Tlast [15]: 24 h | t1/2 [15]: 18.3 h | Cmin (whole blood, 100 mg QD, Day 15 observed, mean of first two patients): 2445 ng/mL | Total Area (whole blood, 100 mg QD, d 1, Patients 1 and 2): 60740 and 41732 | Total Area (whole blood, 100 mg QD, d 15, Patients 1 and 2): 118285 and 65180
